In patent US8685953B2, “Linear and cyclic guanidine derivatives, method of preparation and uses thereof” (Universita Degli Studi Di Siena, priority 2008, dated 2014):
Converted amounts (≈) assume the structure as drawn. Counter-ions that a name gives are not always drawn. Like-named read-outs stand apart in the source and are kept apart here.

Assays:
C. tropicalis 86E = experiment: MIC determination by AFST-EUCAST standard methodology; format: cell-based; details: 24 h, visually and spectrophotometrically, read-out: Antifungal activity, expressed as MIC50
Experimental: (§1) Determination of MICs by AFST-EUCAST Standard Methodology
(§2) Assay medium. The assay medium was RPMI […] without NaHCO3 and with L-glutamine (Sigma Aldrich, Italy), buffered at pH 7.0 with 0.165 M morpholinepropanesulphonic acid (Sigma Aldrich, Italy) and supplemented with 2% (w/v) glucose. The medium, prepared as double-strength solution, was sterilized by filtration and diluted 1:2 (v/v) with the fungal inoculum prepared in sterile distilled water.
(§3) The yeast isolates were grown on Sabouraud dextrose agar (Oxoid, Madrid, Spain) for 48 h at 37° C. before testing. Suspensions were prepared by combining five distinct colonies of each culture of >1 mm diameter. A spectrophotometric procedure for inoculum preparation was used. The final inoculum suspension, prepared in sterile distilled water, contained between 0.5·10^5 and 2.5·10^5 cfu/mL.
(§4) Stock solutions of test compounds were prepared in 100% dimethyl sulfoxide. Stock solutions were prepared as 100× concentration relative to the highest concentration in the antifungal activity test, and frozen at −70° C. until used.
(§5) Sterile plastic micro titration plates containing flat-bottomed wells were used. The plates contained serial dilution of the antifungal agents with a volume of assay medium of 100 μL/well. Two drug-free medium wells were used as sterility and growth controls. The trays were inoculated with 100 μL/well of the final inoculum, with the exception of sterility control wells. The range of concentrations tested for each drug was 1.25-80 μM. The microtitration plates were incubated at 37° C. for 24 h. The minimal inhibitory concentrations (MICs) were determined at 24 h both visually and spectrophotometrically.
(§6) By visual endpoint determination, MICs were determined according to a S-1-R scale, with S (susceptible) indicating an optical clear culture, I (intermediate susceptibility) indicating a slightly hazy culture, and R (resistant) indicating no reduction in turbidity. The MIC50 was defined as the lowest concentration of a drug which correspond to a S culture.
(§7) Microtitration plates were stirred using a microtitration plate shaker before reading to ensure uniform turbidity. MICs were obtained by measuring the absorbance at 450 nm with a microtitration plate reader. The value of the blank was subtracted from reading of the rest of the wells. Two endpoints were defined for each antifungal agent tested, with MIC80 indicating the lowest drug concentration resulting in a reduction of growth of 80% or more (determined spectrophotometrically) compared with the growth of the control, and MIC50 indicating the lowest drug concentration resulting in a reduction in growth of 50% (determined spectrophotometrically) compared with the growth of the control. The MIC50 was also defined as the spectrophotometric endpoint.

C. krusei ATCC 14243 = experiment: as above; format: cell-based; details: visually and spectrophotometrically, read-out: Antifungal activity, expressed as MIC50
Experimental: as §1, §2, §3, §4, §5, §6, §7

C. krusei 193T = experiment: as above; format: cell-based; details: 24 h, visually and spectrophotometrically, read-out: Antifungal activity, expressed as MIC50
Experimental: as §1, §2, §3, §4, §5, §6, §7

C. parapsilosis 81E = experiment: as above; format: cell-based; details: 24 h, visually and spectrophotometrically, read-out: Antifungal activity, expressed as MIC50
Experimental: as §1, §2, §3, §4, §5, §6, §7

C. glabrata 70E = experiment: as above; format: cell-based; details: for MIC50: C. glabrata 70E, 24 h, visually and spectrophotometrically, read-out: Antifungal activity, expressed as MIC50
Experimental: as §1, §2, §3, §4, §5, §6, §7

[1] = system: C. parapsilosis ATCC 34136; experiment: as above; format: cell-based; details: visually and spectrophotometrically, read-out: Antifungal activity, expressed as MIC50
Experimental: as §1, §2, §3, §4, §5, §6, §7

C. parapsilosis 64E = experiment: as above; format: cell-based; details: 24 h, visually and spectrophotometrically, read-out: Antifungal activity, expressed as MIC50
Experimental: as §1, §2, §3, §4, §5, §6, §7

C. albicans 4T = experiment: as above; format: cell-based, Candida albicans; details: 24 h, visually and spectrophotometrically; for MIC50: read-out: Antifungal activity, expressed as MIC50
Experimental: as §1, §2, §3, §4, §5, §6, §7

C. albicans 15T = experiment: as above; format: cell-based, Candida albicans; details: 24 h, visually and spectrophotometrically, read-out: Antifungal activity, expressed as MIC50
Experimental: as §1, §2, §3, §4, §5, §6, §7

C. albicans 53T = experiment: as above; format: cell-based, Candida albicans; details: 24 h, visually and spectrophotometrically, read-out: Antifungal activity, expressed as MIC50
Experimental: as §1, §2, §3, §4, §5, §6, §7

C. albicans ATCC 60193 = experiment: as above; format: cell-based, Candida albicans; details: visually and spectrophotometrically, read-out: Antifungal activity, expressed as MIC50
Experimental: as §1, §2, §3, §4, §5, §6, §7

C. krusei strains = experiment: MIC determination, summary over C. krusei strains; format: cell-based; details: Pichia kudriavzevii; text summary over C. krusei strains; read-out: activity toward C. krusei strains (MIC)
Experimental: as §1, §2
(§8) The yeast isolates were grown on Sabouraud dextrose agar (Oxoid, Madrid, Spain) for 48 h at 37° C. before testing. Suspensions were prepared by combining five distinct colonies of each culture of >1 mm diameter. […]
(§9) Sterile plastic micro titration plates containing flat-bottomed wells were used. […] The minimal inhibitory concentrations (MICs) were determined at 24 h both visually and spectrophotometrically.
(§10) By visual endpoint determination, MICs were determined according to a S-1-R scale, with S (susceptible) indicating an optical clear culture, I (intermediate susceptibility) indicating a slightly hazy culture, and R (resistant) indicating no reduction in turbidity. […]
(§11) Microtitration plates were stirred using a microtitration plate shaker before reading to ensure uniform turbidity. MICs were obtained by measuring the absorbance at 450 nm with a microtitration plate reader. The value of the blank was subtracted from reading of the rest of the wells. […]

C. albicans = experiment: MIC determination, summary over C. albicans strains; format: cell-based; details: Candida albicans; text summary over all C. albicans strains; read-out: activity toward C. albicans (MIC)
Experimental: as §1, §2, §8, §9, §10, §11

C. parapsilosis = experiment: MIC determination, summary over C. parapsilosis; format: cell-based; details: Lodderomyces parapsilosis, stated jointly with C. glabrata; read-out: activity toward C. parapsilosis (MIC)
Experimental: as §1, §2, §8, §9, §10, §11

[2] = Pichia kudriavzevii, ATCC14243, 24 h
[3] = Lodderomyces parapsilosis, ATCC34136, 24 h
[4] = Candida albicans, ATCC60193, 24 h

| SMILES | MIC50 (C. tropicalis 86E; Candida tropicalis) [µM] | MIC50 (C. krusei ATCC 14243; [2]) [µM] | MIC50 (C. krusei 193T; Pichia kudriavzevii) [µM] | MIC50 (C. parapsilosis 81E; Lodderomyces parapsilosis) [µM] | MIC50 (C. glabrata 70E; Nakaseomyces glabratus) [µM] | MIC50 [1, 3] [µM] | MIC50 (C. parapsilosis 64E; Lodderomyces parapsilosis) [µM] | MIC50 (C. albicans 4T; Candida albicans) [µM] | MIC50 (C. albicans 15T; Candida albicans) [µM] | MIC50 (C. albicans 53T; Candida albicans) [µM] | MIC50 (C. albicans ATCC 60193; [4]) [µM] | also measured |
| --- | --- | --- | --- | --- | --- | --- | --- | --- | --- | --- | --- | --- |
| CC(C)=CCNC(=N)NCCCCCCCCN1CCCCCCCCNC(=N)NC1=O [Compound 13f] |  |  |  |  |  |  |  |  |  |  |  | MIC50 (C. tropicalis 86E): 20 µM (≈ 8.99 µg/mL); MIC50 (C. krusei ATCC 14243; 24 h): 10 µM (≈ 4.5 µg/mL); MIC50 (C. krusei 193T): 20 µM (≈ 8.99 µg/mL); MIC50 (C. parapsilosis 81E): 40 µM (≈ 18 µg/mL); MIC50 (C. glabrata 70E): 80 µM (≈ 36 µg/mL); MIC50 ([1]; 24 h): >80 µM; MIC50 (C. parapsilosis 64E): >80 µM; MIC50 (C. albicans 4T): 20 µM (≈ 8.99 µg/mL); MIC50 (C. albicans 15T): 20 µM (≈ 8.99 µg/mL); MIC50 (C. albicans 53T): 20 µM (≈ 8.99 µg/mL); MIC50 (C. albicans ATCC 60193; 24 h): 40 µM (≈ 18 µg/mL) |
| N=C(NCCCCCCCCN1CCCCCCCCNC(=N)NC1=O)NCc1ccccc1 [Compound 15a, 1-[benzyl]-3-[8-(4-imino-2-oxo-1,3,5-triazacyclotridec-1-yl)octyl]guanidine tri trifluoroacetate] | 2.5 | 20 | 10 | 20 | 40 | 80 | 20 | 2.5 | 5 | 2.5 | 2.5 |  |
| N=C(NCCCCCCCCN1CCCCCCCCNC(=N)NC1=O)NCC1CC1 [Compound 15c, 1-[cyclopropylmethyl]-3-[8-(4-imino-2-oxo-1,3,5-triazacyclotridec-1-yl)octyl]guanidine tri trifluoroacetate] | 1.25 | 10 | 10 | 40 | 40 | > 80 | 20 | 2.5 | 2.5 | 2.5 | 2.5 | MIC (C. krusei strains): 10 µM; MIC (C. albicans): 2.5 µM |
| CC(C)=CCNC(=N)NCCCCCCCCN1CCCCCCCCNC(=N)NC1=O [Compound 15e, 1-[γ,γ-dimethylallyl]-3-[8-(4-imino-2-oxo-1,3,5-triazacyclotridec-1-yl)octyl]guanidine tri trifluoroacetate] | 20 | 10 | 20 | 40 | 80 | > 80 | > 80 | 20 | 20 | 20 | 40 | MIC (C. parapsilosis): 40 to 80 µM; MIC (C. glabrata 70E; Nakaseomyces glabratus, 70E, stated jointly with C. parapsilosis, read-out: activity toward C. glabrata (MIC)): 40 to 80 µM; MIC (C. albicans): 20 to 40 µM |
| OC(Cn1cncn1)(Cn1cncn1)c1ccc(F)cc1F [F, fluconazole, reference compound] | 52 (≈ 15.9 µg/mL) | 209 (≈ 64 µg/mL) | 418 (≈ 128 µg/mL) | 13 (≈ 3.98 µg/mL) | 209 (≈ 64 µg/mL) | 6.5 (≈ 1.99 µg/mL) | 32 (≈ 9.8 µg/mL) | 209 (≈ 64 µg/mL) | 209 (≈ 64 µg/mL) | 418 (≈ 128 µg/mL) | 0.8 (≈ 0.245 µg/mL) |  |

Now from value to compound, other results behind:

| MIC50 (C. tropicalis 86E; Candida tropicalis) [µM] | MIC50 (C. krusei ATCC 14243; [2]) [µM] | MIC50 (C. krusei 193T; Pichia kudriavzevii) [µM] | MIC50 (C. parapsilosis 81E; Lodderomyces parapsilosis) [µM] | MIC50 (C. glabrata 70E; Nakaseomyces glabratus) [µM] | MIC50 [1, 3] [µM] | MIC50 (C. parapsilosis 64E; Lodderomyces parapsilosis) [µM] | MIC50 (C. albicans 4T; Candida albicans) [µM] | MIC50 (C. albicans 15T; Candida albicans) [µM] | MIC50 (C. albicans 53T; Candida albicans) [µM] | MIC50 (C. albicans ATCC 60193; [4]) [µM] | SMILES | also measured |
| --- | --- | --- | --- | --- | --- | --- | --- | --- | --- | --- | --- | --- |
| 5 | 80 | 40 | 80 | 80 | 40 | 40 | 80 | 2.5 | 5 | 2.5 | C#CCNC(=N)NCCCCCCCCN1CCCCCCCCNC(=N)NC1=O.O=C(O)C(F)(F)F.O=C(O)C(F)(F)F.O=C(O)C(F)(F)F [Compound 15b, 1-[propargyl]-3-[8-(4-imino-2-oxo-1,3,5-triazacyclotridec-1-yl)octyl]guanidine tri trifluoroacetate] | Antifungal activity, expressed as MIC50 (C. albicans 4T): resistant |
| 40 | 40 | 80 | > 80 | 80 | > 80 | > 80 | 40 | 20 | 40 | 20 | C=C(C)CNC(=N)NCCCCCCCCN1CCCCCCCCNC(=N)NC1=O [Compound 15d, 1[β-methylallyl]-3-[8-(4-imino-2-oxo-1,3,5-triazacyclotridec-1-yl)octyl]guanidine tri trifluoroacetate] |  |
